Experiments:
[1] = target: Epidermal growth factor receptor (Homo sapiens, UniProt P00533); test: Inhibition of the tyrosine kinase activity of the human epidermal growth factor receptor (EGFR)
NIH3T3 = test: Compound was tested for the concentration necessary to inhibit swiss 3T3 Mouse Fibroblast cell growth rate by 50%.; assay type: functional, cell-based

Epidermal growth factor receptor, sequence (P00533 whole entry): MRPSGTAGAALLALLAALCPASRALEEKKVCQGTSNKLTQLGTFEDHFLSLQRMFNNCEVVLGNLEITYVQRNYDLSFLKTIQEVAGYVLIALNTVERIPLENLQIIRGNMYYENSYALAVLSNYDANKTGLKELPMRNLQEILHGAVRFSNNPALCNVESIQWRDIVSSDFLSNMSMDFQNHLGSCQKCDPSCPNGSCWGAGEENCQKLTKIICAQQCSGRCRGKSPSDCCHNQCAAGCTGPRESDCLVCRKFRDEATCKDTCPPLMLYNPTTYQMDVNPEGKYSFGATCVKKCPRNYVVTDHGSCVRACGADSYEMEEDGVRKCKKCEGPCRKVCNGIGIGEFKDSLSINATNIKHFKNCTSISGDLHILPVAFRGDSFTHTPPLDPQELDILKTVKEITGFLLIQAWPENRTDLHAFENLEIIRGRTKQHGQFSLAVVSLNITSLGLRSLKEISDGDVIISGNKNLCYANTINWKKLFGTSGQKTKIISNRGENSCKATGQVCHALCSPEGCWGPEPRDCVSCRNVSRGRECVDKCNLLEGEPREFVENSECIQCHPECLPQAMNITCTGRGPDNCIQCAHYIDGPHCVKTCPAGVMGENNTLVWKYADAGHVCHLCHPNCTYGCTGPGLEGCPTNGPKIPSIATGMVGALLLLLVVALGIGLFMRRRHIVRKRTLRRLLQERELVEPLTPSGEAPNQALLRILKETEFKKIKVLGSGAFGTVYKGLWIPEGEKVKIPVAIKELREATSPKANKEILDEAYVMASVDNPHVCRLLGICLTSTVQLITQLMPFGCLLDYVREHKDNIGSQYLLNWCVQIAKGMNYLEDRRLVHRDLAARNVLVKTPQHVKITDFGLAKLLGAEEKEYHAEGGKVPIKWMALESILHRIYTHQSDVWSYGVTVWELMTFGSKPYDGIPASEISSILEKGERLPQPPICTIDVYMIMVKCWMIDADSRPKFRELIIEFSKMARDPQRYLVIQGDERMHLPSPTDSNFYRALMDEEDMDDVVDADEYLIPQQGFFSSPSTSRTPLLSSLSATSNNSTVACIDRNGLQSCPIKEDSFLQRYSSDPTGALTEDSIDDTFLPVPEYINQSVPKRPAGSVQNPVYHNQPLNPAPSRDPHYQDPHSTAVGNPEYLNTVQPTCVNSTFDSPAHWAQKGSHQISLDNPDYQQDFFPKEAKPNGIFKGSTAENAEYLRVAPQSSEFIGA

Compound	IC50 [1] [µM]	IC50 (NIH3T3) [µM]
O=C(CCc1c(SSc2[nH]c3ccccc3c2CCC(=O)NCCc2ccccc2)[nH]c2ccccc12)NCCc1ccccc1	24	
COC(=O)c1ccc(CNC(=O)CCc2c(SSc3[nH]c4ccccc4c3CCC(=O)NCc3ccc(C(=O)OC)c(O)c3)[nH]c3ccccc23)cc1O	100	
O=C(CCC1C(=S)Nc2ccccc21)NCc1ccccc1 (configuration not stated)	100	
O=C(CCc1c(SSc2[nH]c3ccccc3c2CCC(=O)NCc2ccc(C(=O)O)cc2)[nH]c2ccccc12)NCc1ccc(C(=O)O)cc1	7.4	
O=C(CC1C(=S)Nc2ccccc21)NCc1ccccc1 (configuration not stated)	100	
O=C(CCCc1c(SSc2[nH]c3ccccc3c2CCCC(=O)NCc2ccccc2)[nH]c2ccccc12)NCc1ccccc1	100	
O=C(CCc1c(SSc2[nH]c3ccccc3c2CCC(=O)Nc2ccccc2)[nH]c2ccccc12)Nc1ccccc1	25	
N#CCCc1c(SSc2[nH]c3ccccc3c2CCC#N)[nH]c2ccccc12	47	
O=C(NCc1ccccc1)C(O)Cc1c(SSc2[nH]c3ccccc3c2CC(O)C(=O)NCc2ccccc2)[nH]c2ccccc12 (configuration not stated)	14	
O=[N+]([O-])CCc1c(SSc2[nH]c3ccccc3c2CC[N+](=O)[O-])[nH]c2ccccc12	89	
O=C(CCc1c(SSc2[nH]c3ccccc3c2CCC(=O)NCc2ccccc2)[nH]c2ccccc12)NCc1ccccc1		5.9
NC(Cc1c(SSc2[nH]c3ccccc3c2CC(N)C(=O)NCc2ccccc2)[nH]c2ccccc12)C(=O)NCc1ccccc1 (configuration not stated)	7.6	5.3
CNC(=O)CCc1c(SSc2[nH]c3ccccc3c2CCC(=O)NC)[nH]c2ccccc12	9.4	
CC(=O)NC(Cc1c(SSc2[nH]c3ccccc3c2CC(NC(C)=O)C(=O)NCc2ccccc2)[nH]c2ccccc12)C(=O)NCc1ccccc1 (configuration not stated)	51	
O=C(CCc1c(SSc2[nH]c3ccccc3c2CCC(=O)NCc2ccc(C(=O)O)c(O)c2)[nH]c2ccccc12)NCc1ccc(C(=O)O)c(O)c1	8.5	
N#CCc1c(SSc2[nH]c3ccccc3c2CC#N)[nH]c2ccccc12	32	
CC(=O)OC(Cc1c(SSc2[nH]c3ccccc3c2CC(OC(C)=O)C(=O)NCc2ccccc2)[nH]c2ccccc12)C(=O)NCc1ccccc1 (configuration not stated)	28	
O=C(NCc1ccccc1)C(Cc1c(SSc2[nH]c3ccccc3c2CC(NC(=O)C(F)(F)F)C(=O)NCc2ccccc2)[nH]c2ccccc12)NC(=O)C(F)(F)F (configuration not stated)	> 100	
CN(C)C(=O)CCc1c(SSc2[nH]c3ccccc3c2CCC(=O)N(C)C)[nH]c2ccccc12	12	
O=C(Cc1c(SSc2[nH]c3ccccc3c2CC(=O)NCc2ccccc2)[nH]c2ccccc12)NCc1ccccc1		2.7
O=C(O)CCc1c(SSc2[nH]c3ccccc3c2CCC(=O)O)[nH]c2ccccc12		60
